The source made the active and inactive calls.
Experiments:
[1] = system: H9c2; assay: cells; format: functional, cell-based; details: Rattus norvegicus, H9c2, Myocardium;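 also: confirmatory concentration-response retest of ultra-high-throughput screening hits for modulation of myocardial damage; cell death induced by hydrogen peroxide oxidative stress; compound pretreatment for 60 min then peroxide exposure for 2 h; potency is for protecting the cells against peroxide damage rather than for killing them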
[2] = target: T1, Replicative DNA helicase DnaB (Mycobacterium tuberculosis, UniProt P9WMR3); assay: DnaB intein splicing inhibitors, dose response, biochemical, cell-free fluorescence (AID 449749); format: functional
T1 sequence (P9WMR3 whole entry): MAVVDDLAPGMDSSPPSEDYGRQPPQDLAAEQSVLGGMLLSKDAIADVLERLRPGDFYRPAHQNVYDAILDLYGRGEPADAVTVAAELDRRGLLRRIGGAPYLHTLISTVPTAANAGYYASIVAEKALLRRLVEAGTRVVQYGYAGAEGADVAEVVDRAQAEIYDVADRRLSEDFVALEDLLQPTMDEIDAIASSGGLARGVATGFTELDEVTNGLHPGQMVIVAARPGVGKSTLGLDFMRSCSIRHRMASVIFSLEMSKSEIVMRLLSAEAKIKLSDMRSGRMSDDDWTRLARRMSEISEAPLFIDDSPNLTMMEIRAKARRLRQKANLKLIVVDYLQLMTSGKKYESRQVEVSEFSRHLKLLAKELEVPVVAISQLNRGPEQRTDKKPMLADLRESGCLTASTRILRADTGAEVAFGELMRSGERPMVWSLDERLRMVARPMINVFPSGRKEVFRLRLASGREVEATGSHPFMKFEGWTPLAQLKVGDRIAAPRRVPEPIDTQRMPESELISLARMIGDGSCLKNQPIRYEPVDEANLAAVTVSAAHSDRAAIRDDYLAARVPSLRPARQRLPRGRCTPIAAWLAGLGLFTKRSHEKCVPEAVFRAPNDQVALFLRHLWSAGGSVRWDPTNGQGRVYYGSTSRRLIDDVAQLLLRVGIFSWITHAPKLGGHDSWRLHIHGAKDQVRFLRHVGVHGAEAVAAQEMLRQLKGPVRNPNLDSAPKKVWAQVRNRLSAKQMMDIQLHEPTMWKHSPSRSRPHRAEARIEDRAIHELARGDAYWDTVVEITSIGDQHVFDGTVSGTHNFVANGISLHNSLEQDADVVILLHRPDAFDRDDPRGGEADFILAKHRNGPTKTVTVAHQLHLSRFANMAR

[3] = target: T2, Protein RecA (Mycobacterium tuberculosis, UniProt P9WHJ3); assay: Fluorescence Cell-Free Homogeneous Dose Retest to Identify Inhibitors of RecA-Intein Splicing Activity. [Related pubchem assays (depositor defined):AID2097, AID2223, AID489010, AID492950]; format: functional
T2 sequence (P9WHJ3 whole entry): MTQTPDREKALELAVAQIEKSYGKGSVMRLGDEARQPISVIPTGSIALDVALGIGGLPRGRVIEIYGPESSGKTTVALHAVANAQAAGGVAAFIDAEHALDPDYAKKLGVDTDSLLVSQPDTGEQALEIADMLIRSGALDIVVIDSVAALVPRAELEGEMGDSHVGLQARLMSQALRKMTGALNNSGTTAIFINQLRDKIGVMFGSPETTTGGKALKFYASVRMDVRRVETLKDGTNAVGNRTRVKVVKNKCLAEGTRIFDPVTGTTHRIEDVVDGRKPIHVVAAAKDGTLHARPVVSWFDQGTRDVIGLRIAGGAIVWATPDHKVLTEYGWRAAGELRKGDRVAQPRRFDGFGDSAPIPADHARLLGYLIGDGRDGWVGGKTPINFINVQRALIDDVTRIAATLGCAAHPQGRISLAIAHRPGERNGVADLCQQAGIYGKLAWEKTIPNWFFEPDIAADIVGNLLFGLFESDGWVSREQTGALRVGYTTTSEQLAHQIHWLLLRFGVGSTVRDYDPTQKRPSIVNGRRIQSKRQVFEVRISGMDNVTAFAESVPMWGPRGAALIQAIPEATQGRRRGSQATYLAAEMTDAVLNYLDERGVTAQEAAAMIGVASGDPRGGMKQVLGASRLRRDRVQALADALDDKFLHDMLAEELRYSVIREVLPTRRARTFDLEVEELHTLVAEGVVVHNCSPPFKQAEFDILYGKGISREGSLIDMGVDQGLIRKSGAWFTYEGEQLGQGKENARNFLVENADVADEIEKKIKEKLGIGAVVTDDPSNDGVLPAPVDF

[4] = target: T3, Heat shock factor protein 1 (Mus musculus, UniProt P38532); assay: inhibition of MG132-induced HSE-luciferase signal, confirmation, cell-based, NIH3T3, luminescence, dose retest (AID 2382); format: functional;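 also: NIH3T3 fibroblasts with HSF1-driven luciferase reporter stressed by proteasome inhibitor MG132; luminescence from HSF1-driven luciferase expression after 8 hours of MG132 stress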
T3 sequence (P38532 whole entry): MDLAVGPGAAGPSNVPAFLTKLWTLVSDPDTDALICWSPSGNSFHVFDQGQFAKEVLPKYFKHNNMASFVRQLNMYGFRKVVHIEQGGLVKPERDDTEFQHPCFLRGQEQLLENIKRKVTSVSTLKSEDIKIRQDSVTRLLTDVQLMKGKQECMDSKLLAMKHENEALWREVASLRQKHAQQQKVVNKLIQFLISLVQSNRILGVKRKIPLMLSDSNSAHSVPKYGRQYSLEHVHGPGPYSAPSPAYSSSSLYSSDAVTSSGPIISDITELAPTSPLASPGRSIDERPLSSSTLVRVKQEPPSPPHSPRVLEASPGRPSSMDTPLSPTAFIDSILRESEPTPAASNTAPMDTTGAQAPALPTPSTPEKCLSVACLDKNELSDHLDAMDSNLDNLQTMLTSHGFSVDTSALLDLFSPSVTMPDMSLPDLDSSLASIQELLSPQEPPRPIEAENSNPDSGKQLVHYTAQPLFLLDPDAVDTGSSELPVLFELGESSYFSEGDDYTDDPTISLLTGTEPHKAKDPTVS

[5] = target: Paired box protein Pax-8 (Homo sapiens, UniProt Q06710); assay: inhibitors of PAX8-driven TPO luciferase reporter, dose response, RMG-I cells, cherry-pick (AID 687027); format: functional, cell-based;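 also: luciferase reporter driven by Pax8 target thyroperoxidase promoter measured by SteadyGlo luminescence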
Chain of Paired box protein Pax-8 (Q06710 whole entry): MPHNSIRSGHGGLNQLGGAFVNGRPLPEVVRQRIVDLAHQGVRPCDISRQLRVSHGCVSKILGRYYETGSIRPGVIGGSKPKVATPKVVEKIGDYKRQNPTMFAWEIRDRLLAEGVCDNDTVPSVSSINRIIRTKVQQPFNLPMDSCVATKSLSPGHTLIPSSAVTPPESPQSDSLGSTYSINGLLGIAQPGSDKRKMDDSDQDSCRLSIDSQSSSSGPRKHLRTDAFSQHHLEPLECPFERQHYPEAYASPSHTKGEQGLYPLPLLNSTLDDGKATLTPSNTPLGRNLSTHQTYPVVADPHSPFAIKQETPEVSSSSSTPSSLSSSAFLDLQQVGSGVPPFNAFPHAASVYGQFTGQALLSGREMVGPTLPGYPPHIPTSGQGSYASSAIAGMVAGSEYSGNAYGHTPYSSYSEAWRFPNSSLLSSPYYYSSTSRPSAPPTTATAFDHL

[6] = target: T4, Corticotropin-releasing factor receptor 2/Corticotropin-releasing factor-binding protein (Homo sapiens, UniProt P24387+Q13324); assay: Dose Response confirmation of uHTS hits for small molecule antagonists of the CRF-binding protein and CRF-R2 receptor complex.; format: functional; details: read-out: IC50_Mean
T4 sequence (Q13324 whole entry): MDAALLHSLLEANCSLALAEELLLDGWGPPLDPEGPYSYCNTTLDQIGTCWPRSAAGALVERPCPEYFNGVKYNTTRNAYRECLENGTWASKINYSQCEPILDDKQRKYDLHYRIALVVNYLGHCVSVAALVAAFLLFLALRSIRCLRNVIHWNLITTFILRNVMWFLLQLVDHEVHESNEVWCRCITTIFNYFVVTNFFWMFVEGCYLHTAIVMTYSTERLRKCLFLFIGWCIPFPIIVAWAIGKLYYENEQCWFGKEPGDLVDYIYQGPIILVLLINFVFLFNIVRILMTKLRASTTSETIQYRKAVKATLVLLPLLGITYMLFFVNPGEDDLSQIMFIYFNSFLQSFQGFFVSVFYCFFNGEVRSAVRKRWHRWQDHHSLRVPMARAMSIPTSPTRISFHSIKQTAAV
T4 sequence (P24387 whole entry): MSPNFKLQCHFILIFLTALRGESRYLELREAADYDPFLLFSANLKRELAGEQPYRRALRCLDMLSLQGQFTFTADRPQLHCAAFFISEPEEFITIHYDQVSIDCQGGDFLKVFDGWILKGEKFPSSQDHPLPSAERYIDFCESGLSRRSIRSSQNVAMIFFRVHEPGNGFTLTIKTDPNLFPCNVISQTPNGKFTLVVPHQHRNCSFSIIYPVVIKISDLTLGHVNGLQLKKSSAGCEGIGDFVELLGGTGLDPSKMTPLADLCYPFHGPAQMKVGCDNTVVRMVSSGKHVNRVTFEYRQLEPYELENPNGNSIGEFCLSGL

[7] = target: T4, Corticotropin-releasing factor receptor 2/Corticotropin-releasing factor-binding protein; assay: activators of CRF receptor 2 with binding protein – uHTS hits, confirmation (AID 602473); format: functional; details: read-out: EC50_Mean

COc1cccc(/C=N/NC(=O)c2oc3nc(-c4ccccc4)cc(-c4ccco4)c3c2N)c1
IC50 [1]: > 79 µM (inactive)

COC(=O)c1c(NC(=O)/C=C/C(=O)O)sc(C)c1-c1ccc(C)cc1
AC50 [2]: 33.7 µM (active)
EC50 [3]: 11.1 µM (active)

CCN(CC(=O)Nc1cc(Cl)ccc1C)C(=O)CCc1nc(O)c2ccccc2n1
IC50 [1]: > 79 µM (inactive)

CCOC(=O)c1ccc(NC(=S)Nc2ccccc2N)cc1
EC50 [4]: > 195 µM (not active)

CCn1cc(C(=O)Nc2cccc(NC(C)=O)c2)c2cc(OC)c(OC)cc2c1=O
IC50 [1]: 20.3 µM (active)

NC(=O)c1nsc(C(=O)N(c2ccccc2)C(C(=O)NC2CCCC2)c2ccc3ncccc3c2)c1N (configuration not stated)
IC50 [1]: > 79 µM (inactive)

COc1cccc(C(c2nnnn2Cc2ccccc2)N2CCC(n3c(O)nc4ccccc43)CC2)c1OC (configuration not stated)
AC50 [5]: 5.5 µM (active)

CCN(CCO)c1ncnc2c1sc1nc(C(C)C)c3c(c12)CC(C)(C)OC3
IC50 [1]: > 79 µM (inactive)

Cc1noc(C)c1COC(=O)COc1ccc2c(C)cc(=O)oc2c1
IC50 [1]: 13.5 µM (active)

CCOC(=O)C1=C(COC(=O)/C=C/c2ccc(F)cc2)NC(=O)NC1C (configuration not stated)
IC50 [1]: > 79 µM (inactive)

Cn1c(=O)n(C)c2cc(S(=O)(=O)Nc3cc(Cl)ccc3O)ccc21
IC50 [6]: > 47.1 µM (inactive)
EC50 [7]: > 53 µM (inactive)

CN(Cc1ccccn1)C(=O)C1CCC(=O)N(Cc2cccc(C(F)(F)F)c2)C1 (configuration not stated)
IC50 [6]: > 47.1 µM (inactive)
EC50 [7]: > 53 µM (inactive)

O=C1NC(=O)c2c(Br)c(Br)c(Br)c(Br)c21
IC50 [1]: > 79 µM (inactive)

Cc1ccc(Nc2nc(N)nc(O)c2N=O)cc1
IC50 [1]: 12.1 µM (active)

CCOC(=O)C(Cc1ccccc1)NC(=O)CCc1nnc2ccc(N3CCCC3)nn12 (configuration not stated)
IC50 [6]: > 47.1 µM (inactive)
EC50 [7]: > 53 µM (inactive)

CCc1ccccc1-n1c(SCC(=O)Nc2ccc3c(c2)OCCO3)nc2nncc-2c1O
EC50 [4]: 3.04 µM (active)

COc1cc(-c2cnc3c(NC=O)cc(-c4ccsc4)cn23)cc(OC)c1OC
IC50 [1]: > 79 µM (inactive)

O=C(Nc1cccc(F)c1)N1CCC(c2ccccc2)CC1
AC50 [2]: 53.5 µM (active)
EC50 [3]: > 380 µM (inactive)

FC(F)(F)c1ccc2c(c1)N(CCCN1CCN(CCCl)CC1)c1ccccc1S2
AC50 [2]: 9.54 µM (active)
EC50 [3]: 3.6 µM (active)

O=C(NCC1CCCN(C2Cc3ccccc3C2)C1)c1cccs1 (configuration not stated)
EC50 [4]: > 195 µM (not active)

CCOC(=O)C1=C(CN2CCN(C(=O)c3ccco3)CC2)NC(=O)NC1c1ccc(OC)cc1 (configuration not stated)
EC50 [4]: > 195 µM (not active)

c1ccc(-c2ccc(C3CCCN3)cc2)cc1 (configuration not stated)
AC50 [2]: > 380 µM (inactive)
EC50 [3]: > 380 µM (inactive)

CCN(CC)C(=O)CSc1ncnc2c1cnn2-c1ccccc1
IC50 [6]: > 47.1 µM (inactive)
EC50 [7]: > 53 µM (inactive)

O=C(CSc1nccn1Cc1ccco1)Nc1cccc(F)c1
EC50 [4]: > 195 µM (not active)

COc1cc2c(cc1OC)C(C(=O)NC1CC1)C1c3ccccc3CCN1C2=O (configuration not stated)
EC50 [4]: > 195 µM (not active)

O=C(Nc1cccn(Cc2c(Cl)cccc2Cl)c1=O)c1c(Cl)cccc1Cl
IC50 [6]: 9.97 µM (active)
EC50 [7]: > 53 µM (inactive)

Cc1ccc(CN2CC(C(=O)NCCCSc3ccccc3)CC2=O)cc1 (configuration not stated)
IC50 [6]: > 47.1 µM (inactive)
EC50 [7]: > 53 µM (inactive)

CCN=C(S)Nc1cc(OC)c(NC(=O)c2ccco2)cc1OC
IC50 [6]: > 47.1 µM (inactive)
EC50 [7]: > 53 µM (inactive)

Cn1c2c(c(=O)n(C)c1=O)C(c1cccc([N+](=O)[O-])c1)Nc1ccccc1O2 (configuration not stated)
IC50 [1]: > 79 µM (inactive)

COc1ccc(OCc2cc(C(=O)NC3CCOC(C)(C)C3)no2)c2ccccc12 (configuration not stated)
AC50 [2]: 4.88 µM (active)
EC50 [3]: 4.57 µM (active)

COc1ccc(-c2cc(NC=O)c3ncc(-c4ccc(C(C)=O)cc4)n3c2)cn1
IC50 [1]: > 79 µM (inactive)

Clc1ccc(-c2nnc(Sc3nc4ccccc4o3)c3ccccc23)cc1
AC50 [2]: 1.58 µM (active)
EC50 [3]: 0.405 µM (active)

COC(=O)c1ccc(C(c2c(C)n[nH]c2O)c2c(C)n[nH]c2O)cc1
AC50 [2]: 3.35 µM (active)
EC50 [3]: 1.94 µM (active)

COC(=O)c1ccc(CNC(=O)COC(=O)CC23CC4CC(CC(Br)(C4)C2)C3)cc1
IC50 [6]: > 47.1 µM (inactive)
EC50 [7]: > 53 µM (inactive)

CN(C)C(=O)/C=C\c1cn(-c2ccccc2)nc1-c1ccc2c(c1)OCCO2
IC50 [1]: > 79 µM (inactive)

COc1ccc(NC(=O)c2cc(-c3ccc(OC)c(OC)c3)nc3ccccc23)c(OC)c1
IC50 [1]: > 79 µM (inactive)

CC(OC(=O)Cn1[nH]c(=O)c2ccccc2c1=O)C(=O)Nc1ccccc1[N+](=O)[O-] (configuration not stated)
IC50 [1]: > 79 µM (inactive)

CCOC(=O)c1c(NC(=O)CCl)sc(C(=O)N(CC)CC)c1C
AC50 [2]: 2.19 µM (active)
EC50 [3]: 43.6 µM (active)

Cc1ccc(N2C(=O)CC(=O)NC2=O)c(C)c1
IC50 [6]: > 47.1 µM (inactive)
EC50 [7]: > 53 µM (inactive)

COc1cc2c(c(OC)c1OC)-c1ccc(SC)c(=O)cc1C(NC(=O)C(F)(F)F)CC2 (configuration not stated)
AC50 [5]: < 0.26 µM (active)

— ChEMBL document CHEMBL1201862, “PubChem BioAssay data set” (2004)
